Assay results as given in patent US9474758B2, “Thienopyrimidinedione derivatives as TRPA1 modulators” (Glenmark Pharmaceuticals S.A., priority 2009, dated 2016).

Legend:
[1] = target: T1, Human TRPA1 expressing CHO cells (Homo sapiens, UniProt O75762); assay: 45Calcium uptake assay, inhibition of AITC induced calcium uptake (human); assay type: cell-based; conditions: human TRPA1 CHO cells, AITC 30 μM; for inhibition at 1 µM: compound 1.0 μM, read-out: Percentage inhibition at 1.0 μM; for inhibition at 10 µM: compound 10.0 μM, read-out: Percentage inhibition at 10.0 μM; for IC50: read-out: Human IC50 value (Range)
T1 construct: expressed in transfected cells; host or cells: CHO cells (G-418 selection)
Experimental: (§1) Screening for TRPA1 Antagonist Using the ^45Calcium Uptake Assay:
(§2) The inhibition of TRPA1 receptor activation was measured as inhibition of allyl isothiocyanate (AITC) induced cellular uptake of radioactive calcium.
(§3) Test compounds were dissolved in 100% DMSO to prepare 10 mM stock and then diluted using plain medium with 0.1% BSA and 1.8 mM CaCl2 to get the desired concentration. The final concentration of DMSO in the reaction was 0.5% (v/v). […] Rat TRPA1 expressing CHO cells were grown in F-12 DMEM medium with 10% FBS, 1% penicillin-streptomycin solution, and 400 μg/ml of Zeocin. […] Cells were treated with the test compounds for 10 minutes followed by the addition of AITC at a final concentration of 30 μM (for human TRPA1) and/or 10 μM (for rat TRPA1) and 5 μCi/ml ^45Ca^+2 for 3 minutes. Cells were washed and lysed using a buffer containing 1% Triton X-100, 0.1% deoxycholate and 0.1% SDS. Radioactivity in the lysate was measured in a Packard TopCount after addition of liquid scintillant.
(§4) Concentration response curves were plotted as a % of maximal response obtained in the absence of test antagonist. IC50 values can be calculated from concentration response curve by nonlinear regression analysis using GraphPad PRISM software.

[2] = target: T2, Rat TRPA1 expressing CHO cells (Rattus norvegicus, UniProt Q6RI86); assay: 45Calcium uptake assay, inhibition of AITC induced calcium uptake (rat); assay type: cell-based; conditions: rat TRPA1 CHO cells, AITC 10 μM; for inhibition at 1 µM: compound 1.0 μM, read-out: Percentage inhibition at 1.0 μM; for inhibition at 10 µM: compound 10.0 μM, read-out: Percentage inhibition at 10.0 μM; for IC50: read-out: Rat IC50 value (Range)
T2 construct: expressed in transfected cells; host or cells: CHO cells (Zeocin selection)
Experimental: as §1, §2, §3, §4

T1 sequence (O75762 whole entry): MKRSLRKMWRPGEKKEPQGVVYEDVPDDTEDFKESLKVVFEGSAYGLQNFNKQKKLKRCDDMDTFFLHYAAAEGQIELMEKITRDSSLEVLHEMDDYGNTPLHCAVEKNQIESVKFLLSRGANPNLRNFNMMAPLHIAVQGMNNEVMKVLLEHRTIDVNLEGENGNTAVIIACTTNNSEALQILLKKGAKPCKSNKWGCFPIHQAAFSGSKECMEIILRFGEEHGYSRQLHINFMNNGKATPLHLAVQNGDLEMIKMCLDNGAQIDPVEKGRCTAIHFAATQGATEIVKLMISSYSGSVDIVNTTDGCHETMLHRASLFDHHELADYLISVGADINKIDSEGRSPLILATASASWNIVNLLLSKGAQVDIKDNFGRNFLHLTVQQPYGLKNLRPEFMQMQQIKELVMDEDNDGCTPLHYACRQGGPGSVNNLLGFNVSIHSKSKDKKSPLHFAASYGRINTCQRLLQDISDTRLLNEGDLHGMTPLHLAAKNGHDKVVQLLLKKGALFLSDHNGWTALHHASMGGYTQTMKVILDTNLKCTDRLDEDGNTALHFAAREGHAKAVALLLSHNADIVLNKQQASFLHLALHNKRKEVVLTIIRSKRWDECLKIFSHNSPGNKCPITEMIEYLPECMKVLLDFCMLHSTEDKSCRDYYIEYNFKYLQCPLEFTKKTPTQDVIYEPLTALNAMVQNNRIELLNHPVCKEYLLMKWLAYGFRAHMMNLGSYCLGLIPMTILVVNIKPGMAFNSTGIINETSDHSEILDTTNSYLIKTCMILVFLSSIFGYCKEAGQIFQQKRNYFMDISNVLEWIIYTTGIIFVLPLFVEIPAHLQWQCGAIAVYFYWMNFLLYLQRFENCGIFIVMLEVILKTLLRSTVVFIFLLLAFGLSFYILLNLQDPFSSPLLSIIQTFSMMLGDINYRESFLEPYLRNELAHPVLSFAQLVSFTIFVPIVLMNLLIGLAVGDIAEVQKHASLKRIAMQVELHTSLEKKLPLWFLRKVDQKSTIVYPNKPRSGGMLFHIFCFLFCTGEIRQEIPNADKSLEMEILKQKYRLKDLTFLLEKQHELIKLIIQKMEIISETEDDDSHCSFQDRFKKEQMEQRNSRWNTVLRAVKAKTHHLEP
T2 sequence (Q6RI86 whole entry): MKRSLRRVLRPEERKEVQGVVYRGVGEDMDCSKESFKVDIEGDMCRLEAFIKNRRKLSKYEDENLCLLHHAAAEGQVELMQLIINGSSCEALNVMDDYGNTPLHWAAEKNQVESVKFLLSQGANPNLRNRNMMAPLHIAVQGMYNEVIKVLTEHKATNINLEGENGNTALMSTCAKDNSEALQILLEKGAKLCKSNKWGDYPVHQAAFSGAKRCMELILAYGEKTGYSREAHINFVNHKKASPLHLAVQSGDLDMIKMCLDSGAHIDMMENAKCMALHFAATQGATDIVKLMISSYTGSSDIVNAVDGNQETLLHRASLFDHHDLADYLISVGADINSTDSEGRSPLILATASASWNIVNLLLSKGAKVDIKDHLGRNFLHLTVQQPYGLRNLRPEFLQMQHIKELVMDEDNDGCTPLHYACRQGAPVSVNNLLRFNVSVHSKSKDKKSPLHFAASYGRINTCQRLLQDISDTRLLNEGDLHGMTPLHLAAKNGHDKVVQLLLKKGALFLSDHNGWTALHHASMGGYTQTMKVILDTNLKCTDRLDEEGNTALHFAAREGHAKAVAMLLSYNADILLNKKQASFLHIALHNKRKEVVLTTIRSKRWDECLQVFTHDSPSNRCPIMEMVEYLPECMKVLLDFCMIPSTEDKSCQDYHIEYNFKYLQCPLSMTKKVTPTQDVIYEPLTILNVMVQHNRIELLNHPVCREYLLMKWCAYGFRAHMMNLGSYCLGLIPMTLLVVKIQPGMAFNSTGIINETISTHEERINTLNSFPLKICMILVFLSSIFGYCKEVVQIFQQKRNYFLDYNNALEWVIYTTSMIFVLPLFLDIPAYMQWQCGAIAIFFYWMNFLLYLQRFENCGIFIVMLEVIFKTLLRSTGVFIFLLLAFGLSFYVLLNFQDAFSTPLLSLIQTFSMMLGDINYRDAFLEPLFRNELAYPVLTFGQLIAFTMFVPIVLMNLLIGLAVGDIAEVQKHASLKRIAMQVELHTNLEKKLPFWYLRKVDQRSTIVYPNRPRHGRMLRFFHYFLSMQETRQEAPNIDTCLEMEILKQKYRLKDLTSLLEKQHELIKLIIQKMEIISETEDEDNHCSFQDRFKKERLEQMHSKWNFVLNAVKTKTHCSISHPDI

inhibition at 1 µM [1]	inhibition at 10 µM [1]	IC50 [1]	inhibition at 1 µM [2]	inhibition at 10 µM [2]	IC50 [2]	Structure (SMILES)
98%	97.4%	< 0.05 µM	21%	95.9%		Cn1c(=O)c2c(CC(=O)Nc3nc(-c4cc(F)c(OCC(F)(F)F)c(F)c4)cs3)scc2n(C)c1=O [Example 60, N-{4-[3,5-Difluoro-4-(2,2,2-trifluoro-ethoxy)phenyl]-1,3-thiazol-2-yl}-2-(1,3-dimethyl-2,4-dioxo-1,2,3,4-tetrahydrothieno[3,4-d]pyrimidin-5-yl)acetamide]
99%	97.7%	< 0.05 µM	94.9%	97%	< 0.05 µM	CC(C)c1sc2c(c1CC(=O)Nc1nc(-c3ccc(C(F)(F)F)c(F)c3)cs1)c(=O)n(C)c(=O)n2C [Example 37, N-{4-[3-Fluoro-4-(trifluoromethyl)phenyl]-1,3-thiazol-2-yl}-2-(6-isopropyl-1,3-dimethyl-2,4-dioxo-1,2,3,4-tetrahydrothieno[2,3-d]pyrimidin-5-yl)acetamide]
99.1%	99.1%	< 0.05 µM	38.7%	98.7%		Cn1c(=O)c2c(CC(=O)Nc3nc(-c4cc(F)c(C(F)(F)F)c(F)c4)cs3)csc2n(C)c1=O [Example 16, N-{4-[3,5-Difluoro-4-(trifluoromethyl)phenyl]-thiazol-2-yl}-2-(1,3-dimethyl-2,4-dioxo-1,2,3,4-tetrahydrothieno[2,3-d]pyrimidin-5-yl)acetamide]
95.3%	99.9%	< 0.05 µM			< 0.05 µM	Cn1c(=O)c2c(CC(=O)Nc3nc(-c4ccc(C(F)(F)F)c(F)c4)cs3)csc2n(C)c1=O [Example 5, 2-(1,3-Dimethyl-2,4-dioxo-1,2,3,4-tetrahydrothieno[2,3-d]pyrimidin-5-yl)-N-{4-[3-fluoro-4-(trifluoromethyl)phenyl]-1,3-thiazol-2-yl}acetamide]
97.8%	99.3%	0.05 to 0.5 µM	42.7%	97.9%		Cn1c(=O)c2c(CC(=O)Nc3nc(-c4ccc(Cl)c(Cl)c4)cs3)scc2n(C)c1=O [Example 53, N-[4-(3,4-Dichlorophenyl)-1,3-thiazol-2-yl]-2-(1,3-dimethyl-2,4-dioxo-1,2,3,4-tetrahydrothieno[3,4-d]pyrimidin-5-yl)acetamide]
93.9%	98.5%	< 0.05 µM	93.2%	99.7%	0.05 to 0.5 µM	Cn1c(=O)c2c(CC(=O)Nc3nc(-c4cccc(C(F)(F)F)c4)cs3)scc2n(C)c1=O [Example 46]
99.6%	99.8%	< 0.05 µM	70.4%	99.9%		Cn1c(=O)c2c(CC(=O)Nc3nc(-c4ccc(F)c(OC(F)(F)F)c4)cs3)scc2n(C)c1=O [Example 55, 2-(1,3-Dimethyl-2,4-dioxo-1,2,3,4-tetrahydrothieno[3,4-d]pyrimidin-5-yl)-N-{4-[4-fluoro-3-(trifluoromethoxy)phenyl]-1,3-thiazol-2-yl}acetamide]
98.9%	99.8%	< 0.05 µM	99.1%	99.5%	0.05 to 0.5 µM	CCCc1sc2c(c1CC(=O)Nc1nc(-c3cc(F)c(OC(F)F)c(F)c3)cs1)c(=O)n(C)c(=O)n2C [Example 36, N-{4-[4-Difluoromethoxy-3,5-difluorophenyl]-1,3-thiazol-2-yl}-2-(1,3-dimethyl-2,4-dioxo-6-propyl-1,2,3,4-tetrahydrothieno[2,3-d]pyrimidin-5-yl) acetamide]
98.2%	98.1%	< 0.05 µM			< 0.05 µM	Cn1c(=O)c2c(CC(=O)Nc3nc(-c4ccc(F)c(C(F)(F)F)c4F)cs3)csc2n(C)c1=O [Example 13, N-{4-[2,4-Difluoro-3-(trifluoromethyl)phenyl]-1,3-thiazol-2-yl}-2-(1,3-dimethyl-2,4-dioxo-1,2,3,4-tetrahydrothieno[2,3-d]pyrimidin-5-yl)acetamide]
98.5%	100%	0.05 to 0.5 µM	95.7%	100%		Cc1sc2c(c1CC(=O)Nc1nc(-c3cccc(OC(F)(F)F)c3)cs1)c(=O)n(C)c(=O)n2C [Example 18, N-{4-[3-(Trifluoromethoxy)phenyl]-1,3-thiazol-2-yl}-2-(1,3,6-trimethyl-2,4-dioxo-1,2,3,4-tetrahydrothieno[2,3-d]pyrimidin-5-yl)acetamide]
98.5%	99.9%	< 0.05 µM	99.8%	100%	0.05 to 0.5 µM	Cc1sc2c(c1CC(=O)Nc1nc(-c3ccc(C(F)(F)F)c(F)c3)cs1)c(=O)n(C)c(=O)n2C [Example 24, N-{4-[3-Fluoro-4-(trifluoromethyl)phenyl]-1,3-thiazol-2-yl}-2-(1,3,6-trimethyl-2,4-dioxo-1,2,3,4-tetrahydrothieno[2,3-d]pyrimidin-5-yl)acetamide]
91.4%	93.2%	0.05 to 0.5 µM	84.1%	95.3%		CC(C)Cc1ccc(-c2csc(NC(=O)Cc3scc4c3c(=O)n(C)c(=O)n4C)n2)cc1 [Example 44, 2-(1,3-Dimethyl-2,4-dioxo-1,2,3,4-tetrahydrothieno[3,4-d]pyrimidin-5-yl)-N-[4-(4-isobutylphenyl)-1,3-thiazol-2-yl]acetamide]
89%	98.5%	0.05 to 0.5 µM	82.4%	99.7%		Cn1c(=O)c2c(CC(=O)Nc3nc(-c4cccc(OC(F)(F)F)c4)cs3)csc2n(C)c1=O [Example 3, 2-(1,3-Dimethyl-2,4-dioxo-1,2,3,4-tetrahydrothieno[2,3-d]pyrimidin-5-yl)-N-{4-[3-(trifluoromethoxy)phenyl]-1,3-thiazol-2-yl}acetamide]
99.1%	100%	< 0.05 µM	90.1%	98.3%	0.05 to 0.5 µM	CCCc1sc2c(c1CC(=O)Nc1nc(-c3ccc(C(F)(F)F)c(F)c3)cs1)c(=O)n(C)c(=O)n2C [Example 35, N-{4-[3-Fluoro-4-(trifluoromethyl)phenyl]-1,3-thiazol-2-yl}-2-(1,3-dimethyl-2,4-dioxo-6-propyl-1,2,3,4-tetrahydrothieno[2,3-d]pyrimidin-5-yl) acetamide]
94%	98.9%	0.05 to 0.5 µM	66.2%	94.8%		Cn1c(=O)c2c(CC(=O)Nc3nc(-c4ccc(Cl)cc4)cs3)scc2n(C)c1=O [Example 45, N-[4-(4-Chlorophenyl)-1,3-thiazol-2-yl]-2-(1,3-dimethyl-2,4-dioxo-1,2,3,4-tetrahydrothieno[3,4-d]pyrimidin-5-yl)acetamide]
98%	94.4%	< 0.05 µM	92.3%	98.1%	0.05 to 0.5 µM	Cn1c(=O)c2c(CC(=O)Nc3nc(-c4ccc(OC(F)(F)F)c(F)c4)cs3)scc2n(C)c1=O [Example 52, 2-(1,3-Dimethyl-2,4-dioxo-1,2,3,4-tetrahydrothieno[3,4-d]pyrimidin-5-yl)-N-{4-[3-fluoro-4-(trifluoromethoxy)phenyl]-1,3-thiazol-2-yl}acetamide]
98.5%	98.8%	< 0.05 µM	99.2%	99.3%	0.05 to 0.5 µM	Cc1sc2c(c1CC(=O)Nc1nc(-c3ccc(F)c(OC(F)(F)F)c3)cs1)c(=O)n(C)c(=O)n2C [Example 25, N-{4-[4-Fluoro-3-(trifluoromethoxy)phenyl]-1,3-thiazol-2-yl}-2-(1,3,6-trimethyl-2,4-dioxo-1,2,3,4-tetrahydrothieno[2,3-d]pyrimidin-5-yl)acetamide]
95.1%	99.7%	< 0.05 µM	41.6%	91.8%		Cn1c(=O)c2c(CC(=O)Nc3nc(-c4cc(F)cc(C(F)(F)F)c4)cs3)scc2n(C)c1=O [Example 54, 2-(1,3-Dimethyl-2,4-dioxo-1,2,3,4-tetrahydrothieno[3,4-d]pyrimidin-5-yl)-N-{4-[3-fluoro-5-(trifluoromethyl)phenyl]-1,3-thiazol-2-yl}acetamide]
